Legend:
rats = assay: Training-induced bradycardia in rats; type: in vivo, rat
horses [1] = assay: Plasma glucose and blood lactate during standardised exercise test (SET); type: in vivo, horse; details: 10 g LC/d
swine = assay: Training-induced bradycardia in swine; type: in vivo
horses [2] = assay: Heart rate during treadmill exercise training with oral L-carnitine supplementation; type: in vivo, horse
[3] = LC concentration in M. glutaeus med. muscle biopsies; type: in vivo, horse; details: horses
Description: LC was obtained as commercially available free L-carnitine (Carniking® from Lonza Ltd.). After a first standardised exercise test (SET) during the whole experiment period (5 weeks training, 15 weeks detraining) a group of 4 Trotters received 10 g of LC/d offered with concentrate in two feed portions daily, as essentially described in example 1, while a group of 4 Trotters served as non-supplemented controls. All horses were two years old and were descendants from 1 stallion. The treadmill training program consisted of 8 aerobic, static exercise sessions (15 min warmup, 60 min exercise at an intensity level which maintained a blood lactate concentration of 2.0 mmol/l (VLA 2.0)) and 8 anaerobic exercise sessions (15 min, warm up, followed by 15 steps of graded exercise intensities of 1 min duration each, starting at VLA 4.0). During the dynamic exercises running speed was incremented every minute by 0.3 m/s and ranged from about of 5 m/s to 14 m/s. […]
Muscle biopsies from M. glutaeus med. and venous blood samples were collected at the beginning (1st SET) and the end of training (2nd SET) and at the beginning and the end of the 1st (beginning of training) and 8th (end of training) static and dynamic exercise and after 5 and 10 weeks of detraining. […] Heart rates were continuously monitored during exercises with a polar horse tester.

C[N+](C)(C)C[C@H](O)CC(=O)[O-] [L-carnitine]
Enhancement of training-induced bradycardia (rats): enhancement of training-induced bradycardia was equally achieved
Exercise-induced increase of blood lactate (horses [1]; FIG. 1): lower
Concentration of glucose in plasma during exercise, second SET versus first SET (horses [1]; end of 5 weeks training): lower concentrations of glucose in plasma during exercise
Enhancement of training-induced bradycardia (swine): enhancement of training-induced bradycardia was equally achieved
Heart rate at end of incremented, high intensity (anaerobic) exercise, post-training (horses [2]; N=4, 10 g LC/d, end of 15 steps of +0.3 m/s, after 5 weeks training, mean): 196 beats/min
Heart rate at end of incremented, high intensity (anaerobic) exercise, pre-training (horses [2]; N=4, 10 g LC/d, end of 15 steps of +0.3 m/s, pre-training, mean): 209 beats/min
Heart rate at start of incremented, high intensity (anaerobic) exercise, post-training (horses [2]; N=4, 10 g LC/d, start at VLA 4.0, after 5 weeks training, mean): 143 beats/min
Heart rate at start of incremented, high intensity (anaerobic) exercise, pre-training (horses [2]; N=4, 10 g LC/d, start at VLA 4.0, pre-training, mean): 150 beats/min
Decline of post-training heart rate at equivalent work loads versus start of training (horses [2]; SET, 10 g LC/d for 5 weeks training, FIG. 2): 7 beats/minute
Change in heart rate at increasing exercise work loads, end versus start of training (horses [2]; SET, treadmill speeds 5 to 9 m/s, 10 g LC/d, 5 weeks): significant (p<0.001) reduction in heart rate
Heart rate during moderate intensity (aerobic) exercise, post-training (horses [2]; Trotters N=4, 10 g LC/d oral, 60 min treadmill at VLA 2.0, after 5 weeks training, mean ± SD): 122 ± 6 beats/min
Heart rate during moderate intensity (aerobic) exercise, pre-training (horses [2]; Trotters N=4, 10 g LC/d oral, 60 min treadmill at VLA 2.0, pre-training, mean ± SD): 130 ± 7 beats/min
Elevation of LC concentration in M. glutaeus med. ([3]; 10 g LC/d oral, five weeks of supplementation): about 50%
LC concentration in the muscle during detraining period ([3]; 10 g LC/d, whole detraining period): remained at this high level
